Patent US10214561B2, “Peptide having activity of inhibiting production of toxin by bacterium belonging to genus clostridium” (MIYARISAN PHARMACEUTICAL CO., LTD., priority 2014, dated 2019)
Entries after “also recorded” stand apart in the source; their conditions may differ. Read-outs that look alike come from different tables or passages of the source. No end group written: not given here.

Key:
[1] = tested on: theta-toxin (pfoA) gene; assay type: cell-based, Clostridium welchii strain 13
[2] = tested on: Clostridium welchii theta-toxin (pfoA); assay type: cell-based, Clostridium welchii strain 13
[3] = read-out: IC50 of the inhibitory activity on the toxin production (pfoA expression amount as indicator)

## ACFWAH [peptide 6n]
[1]
  activity of inhibiting toxin expression (theta-toxin pfoA, Northern blot, FIG. 5): activity of inhibiting toxin expression was shown; also recorded: inhibitory activity

## AgrDcb-lactam: Peptide of Formula (2), CFWAH lactam obtained by ammonia conversion of AgrDcb-thiolactone (lactam (positions not given here); also: lactam from ammonia conversion of thiolactone, places not given here)
[2]
  expression of the gene encoding theta-toxin (pfoA) (FIG. 9): inhibited
[2]; [3]
  IC50: 10000 nM

## CAWAA [SEQ ID NO. 33 (Benzyloxycarbonyl group)]
[2]
  agonist activity or antagonist activity (pfoA expression): antagonist activity

## CAWFA [SEQ ID NO. 20 (Hydrogen atom)]
[2]; read-out: IC50
  IC50: 300 nM

## CAWFT [SEQ ID NO. 37 (Benzyloxycarbonyl group), reference compound]
[2]
  IC50 (μM): (No activity)

## CLAFT [SEQ ID NO. 39 (Benzyloxycarbonyl group), reference compound]
[2]
  IC50 (μM): (No activity)
  agonist activity or antagonist activity (pfoA expression): neither the agonist activity nor antagonist activity

## CLFWS [SEQ ID NO. 42 (Benzyloxycarbonyl group), reference compound]
[2]
  IC50 (μM): (No activity)

## CLFWT [SEQ ID NO. 22 (Benzyloxycarbonyl group)]
[2]
  agonist activity or antagonist activity (pfoA expression): antagonist activity

## CLFWT [SEQ ID NO. 22 (Hydrogen atom)]
[2]; read-out: IC50
  IC50: 500 nM

## CLWAS [SEQ ID NO. 35 (Benzyloxycarbonyl group)]
[2]; read-out: IC50
  IC50: 1000 nM

## CLWAT [SEQ ID NO. 31 (Benzyloxycarbonyl group)]
[2]
  agonist activity or antagonist activity (pfoA expression): antagonist activity

## CLWFA [SEQ ID NO. 38 (Benzyloxycarbonyl group), reference compound]
[2]
  IC50 (μM): (Agonist)
  agonist activity or antagonist activity (pfoA expression): agonist activity

## CLWFS [SEQ ID NO. 21 (Benzyloxycarbonyl group)]
[2]
  agonist activity or antagonist activity (pfoA expression): antagonist

## CLWFT [SEQ ID NO. 40 (Benzyloxycarbonyl group), reference compound]
[2]
  IC50 (μM): (Agonist)
  agonist activity or antagonist activity (pfoA expression): agonist activity

## CLWYT [SEQ ID NO. 41 (Benzyloxycarbonyl group), reference compound]
[2]
  IC50 (μM): (Agonist)

## Cys-Phe-Trp-Ala-His [cyclic CFWAH]
[1]
  activity of inhibiting toxin expression (theta-toxin pfoA, Northern blot, FIG. 5): particularly high activity; also recorded: inhibitory activity
[2]
  expression of the gene encoding theta-toxin (pfoA) (FIG. 9): inhibited
[2]; [3]
  IC50: 10000 nM
